Test results from US11800869B2, “Use of 6-oxo-1,4,5,6-tetrahydropyridazine-3-carboxylic acid, 1-methyl 6-oxo-1,4,5,6-tetrahydropyridazine-3-carboxylic acid and 1-alkyl-6-oxo-1,4,5,6-tetrahydropyridazine-3-carboxylic acid for improving growth performance in plants” (Advanced Crop Chem LLP, priority 2020, dated 2023).

How the values were obtained:
Format in all cases: in vivo
[1] = system: Wheat; assay: Seed treatment plus foliar spray, root and shoot biomass and emergence, wheat (Example 2)
Procedure: (§1) Winter wheat variety AWC 13 seeds were treated with either 6-oxo-1,4,5,6-tetrahydropyridazine-3-carboxylic acid (THP) or 1-methyl 6-oxo-1,4,5,6 tetrahydropyridazine-3-carboxylic acid (MTHP) at an effective rate of 10g diluted in 2 L water plus 0.25% Nouryon wetter and applied to 1 ton of seed. These seed were planted in coarse river sand and grown in a greenhouse under ambient light at the greenhouse at 21° C. Plants were irrigated every other day with water containing 50% strength Hoaglands solution. Plants were assessed for emergence and biomass accumulation 30 days after planting. The plants from seeds treated with 6-oxo-1,4,5,6-tetrahydropyridizin-3-carboxylic acid or 1-methyl 6-oxo-1,4,5,6 tetrahydropyridazine-3-carboxylic acid had larger root biomasses (0.83, 0.85 g, dry weight/plant) compared with plants from untreated seeds (0.65 g dry weight/plant). Wheat, corn and pepper seeds were treated with 6-oxo-1,4,5,6-tetrahydropyridizine-3-carboxylic acid (THP) using the same methodology and growth conditions as described in example 1 and the resulting plants were also treated with a light foliar cover spray using an electric hand-held sprayer. (100 g in 200 L water plus 0.25% Nouryon wetter) of 6-oxo-1,4,5,6 tetrahydropyridazine-3-carboxylic acid (30 days post emergence (wheat at Zadoks GS 14 (see FIG. 1), maize at V2, Pepper at 3-4 leaf stage) and then assessed for root and shoot biomass 45 days later. At 75 days post planting the plants were assessed for root and shoot biomass as measured with dry weight.

[2] = system: Pepper; assay: Seed treatment plus foliar spray, root and shoot biomass and emergence, pepper (Example 2)
Procedure: as §1

[3] = system: Wheat plants (Variety AWC 13); assay: Foliar treatment of wheat, foliar and root dry biomass (Example 5); settings: foliar treatment at Zadoks GS 15-20, 30 days after application, mean of 10 plants
From the text: Wheat plants (Variety AWC 13) were given a foliar treatment of 6-oxo-1,4,5,6-tetrahydropyridazine-3-carboxylic acid(THP) or 1-methyl 6-oxo-1,4,5,6 tetrahydropyridazine-3-carboxylic acid (MTHP) and their foliar and root dry biomass determined 30 days after application. The foliar applications were applied at approximately at Zadoks GS 15-20 (see FIG. 1) and assessed 30 days later at Zadoks GS 22-24 (also shown in FIG. 1).

[4] = system: Wheat; assay: Foliar treatment dose series, root and shoot fresh weight, wheat (Example 8); settings: 35 days post treatment; for Root, FWt: dose 0: 1.8; for Shoot, FWt: dose 0: 3.2
Procedure: Corn and wheat plants were given a foliar treatment […] (as described in Example 2) with 6-oxo-1,4,5,6 tetrahydropyridazine-3-carboxylic acid (THP) and then assessed for root and shoot biomass. Three treatment dosages were applied (Table 2). Plants were grown in a greenhouse with a diurnal cycle of 55-75F with ambient light. The plants were grown in a coarse river sand in 4″ pots with 0.5 g of Osmacote/pot. The mean root and shoot fresh weights were assessed at 35 days post treatment.

[5] = system: Wheat seeds; assay: Wheat seed treatment, germination paper, shoot and root fresh weights (Example 9); settings: pH 5.7-5.8, germination paper 75-85° F; for Shoot fresh weight: Control 27.4; for Roots fresh weight: Control 29.1
Procedure: Wheat seeds were treated with 6-oxo-1,4,5,6 tetrahydropyridazine-3-carboxylic acid and the shoot and root fresh weights as shown in Table 1. Shoot and root fresh weights at this stage are components of early seedling emergence which is important for early establishment of a vigorous and productive crop. Wheat seeds were treated with a solution of either 0.1 mM or 0.01 mM 6-oxo-1,4,5,6 tetrahydropyridazine-3-carboxylic acid in an aqueous solution at pH 5.7-5.8. The seeds were placed on moist germination paper and allowed to germinate at 75-85° F. The control seeds were imbibed in aqueous solution containing only the soft soap and glycerol.

[6] = system: Winter wheat variety AWC 13; assay: Wheat seed treatment, field grown, root biomass (Example 14); settings: untreated 0.66
Procedure: Wheat seeds were treated with 6-oxo-1,4,5,6 tetrahydropyridizine-3-carboxylic acid treated plants to examine the impact on shoot and root biomass for field grown plants. Winter wheat variety AWC 13 seeds were treated with 6-oxo-1,4,5,6-tetrahydropyridazine-3-carboxylic acid and field grown. The plants from seeds treated with 6-oxo-1,4,5,6 tetrahydropyridazine-3-carboxylic acid had larger root biomass (0.85 g dry weight/plant) compared with plants from untreated seeds (0.66 g dry weight/plant).

[7] = system: Wheat seeds (Var. VitPro); assay: Wheat seed treatment, leaf wilting under drought (Example 16); settings: Drought stress; for Wilted leaves: 0 mM: 40; for Total leaves: 0 mM: 47; for % Wilted leaves: 0 mM: 85%
Procedure: Wheat seeds were treated with 6-oxo-1,4,5,6 tetrahydropyridazine-3-carboxylic and leaf wilting was tracked to examine the resistance to drought in the seedlings as shown in Table 6. Wheat seeds (Var. VitPro) were treated with an aqueous solution of either 0 mM, 1 mM, 0.5 mM, 0.1 mM or 0.01 mM 6-oxo-1,4,5,6 tetrahydropyridazine-3-carboxylic acid at pH 5.7-5.8. The 0 mM 6-oxo-1,4,5,6-tetrahydropyridizine-3-carboxylic acid seeds were imbibed in aqueous solution containing only the soft soap and glycerol. The plants were allowed to grow to Zadoks GS13 (FIG. 1) when water was withheld until plants in all of the treatments had wilted leaves.

[8] = system: wheat seedlings; assay: Foliar treatment of wheat seedlings, recovery from drought stress (Example 18); parameters: dose or concentration left out as unconfirmed; settings: Drought stressed 10 days then 16 days regrowth
Procedure: Sets of wheat seedlings were given two foliar treatments with 6-oxo-1,4,5,6-tetrahydropyridazine-3-carboxylic acid to examine seedling recovery from drought stress. […] Seedlings were given two foliar treatments: the first at Zadoks GS 12 and at Zadoks GS 14 (FIG. 1). The plants were grown in a greenhouse and fed a standard plant nutrient solution. The plants were drought stressed for 10 days after which water and nutrients were resumed and the plants were allowed to grow for 16 days.

[9] = seed treatment plus foliar spray 100 g in 200 L, 75 days post planting
[10] = seed treatment, % Emergence at 10 days post planting
[11] = foliar dose 50 g/ha in 200 L/ha
[12] = foliar dose 100 g/ha in 200 L/ha
[13] = foliar dose 200 g/ha in 200 L/ha

O=C1CCC(C(=O)O)=NN1 [THP, 6-oxo-1,4,5,6 tetrahydropyridazine-3-carboxylic acid]
Root Dry Weight, % Difference vs Untreated [1, 9]: 12%
Shoot Dry Weight, % Difference vs Untreated [1, 9]: 7%
Emergence, % Difference vs Untreated [1, 10]: 16%
Root Dry Weight, % Difference vs Untreated [2, 9]: 19%
Shoot Dry Weight, % Difference vs Untreated [2, 9]: 9%
Emergence, % Difference vs Untreated [2, 10]: 24%
Dry Weight Shoot ([3]; Con 0.47): 1.01
Dry Weight Root ([3]; Con 0.65): 1.5
Root, FWt [4, 11]: 2.1 g
Shoot, FWt [4, 11]: 4.4 g
Root, FWt [4, 12]: 1.9 g
Shoot, FWt [4, 12]: 5.2 g
Root, FWt [4, 13]: 2.7 g
Shoot, FWt [4, 13]: 5.8 g
Shoot fresh weight ([5]; seed treatment 0.01 mM): 44.7 mg
Roots fresh weight ([5]; seed treatment 0.01 mM): 48.1 mg
Shoot fresh weight ([5]; seed treatment 0.1 mM): 42.1 mg
Roots fresh weight ([5]; seed treatment 0.1 mM): 43.8 mg
root biomass [6]: 0.85 g dry weight/plant
Wilted leaves ([7]; seed treatment 0.1 mM): 18
Total leaves ([7]; seed treatment 0.1 mM): 61
% Wilted leaves ([7]; seed treatment 0.1 mM): 30%
Wilted leaves ([7]; seed treatment 0.5 mM): 14
Total leaves ([7]; seed treatment 0.5 mM): 64
% Wilted leaves ([7]; seed treatment 0.5 mM): 22%
Wilted leaves ([7]; seed treatment 1 mM): 19
Total leaves ([7]; seed treatment 1 mM): 57
% Wilted leaves ([7]; seed treatment 1 mM): 33%
Number of seed heads, avg. ([8]; untreated drought stressed 7.1, normal water 5.4): 8.3
Total foliar fresh wt., avg. ([8]; untreated drought stressed 28.2, normal water 32.3): 33.4 g
